Structures can show the parent of a compound that is named as a salt.
melting point	Structure (SMILES)
195 to 200 °C (dec.)	CCN(CC)C1(CCN2CCN(C(=O)CC3=C(C(=O)OC)C(c4c(Cl)cccc4Cl)C(C(=O)OC)=C(CCc4nccs4)N3)CC2)CCCC1 (stereo not drawn) (as salt: HCl) [Example 34, Dimethyl 4-(2,6-dichlorophenyl)2-[2-[4-[2-[1-(diethylamino)cyclopentyl]ethyl]-1-piperazinyl]-2-oxoethyl]-6-[2-(1,3-thiazol-2-yl)ethyl]-1,4-dihydro-3,5-pyridinedicarboxylate]
154 to 157 °C	CCNCC(C)(C)CN1CCN(C(=O)CC2=C(C(=O)OC)C(c3c(Cl)cccc3Cl)C(C(=O)OC)=C(CCc3nccs3)N2)CC1 (stereo not drawn) [Example 19, Dimethyl 4-(2,6-dichlorophenyl)-2-[2-[4-[3-(ethylamino)-2,2-dimethylpropyl]-1-piperazinyl]-2-oxoethyl]-6-[2-(1,3-thiazol-2-yl)ethyl]-1,4-dihydro-3,5-pyridinedicarboxylate]
169 to 177 °C (dec.)	COC(=O)C1=C(CCc2nccs2)NC(CC(=O)N2CCN(CCCCN3CCOCC3)CC2)=C(C(=O)OC)C1c1c(Cl)cccc1Cl (stereo not drawn) (as salt: HCl) [Example 38, Dimethyl 4-(2,6-dichlorophenyl)-2-[2-[4-[4-(4-morpholinyl)butyl]-1-piperazinyl]-2-oxoethyl]-6-[2-(1,3-thiazol-2-yl)ethyl]-1,4-dihydro-3,5-pyridinedicarboxylate]

Reference: patent US6444677B2, “5-membered heteroaryl substituted 1,4-dihydropyridine compounds as bradykinin antagonists” (Pfizer Inc., priority 1999, dated 2002)
